Where “and” joins values, the source holds several entries; their conditions need not be identical. Equal values may be shown once. Entries after “also recorded” stand apart in the source; their conditions may differ.
Assays:
[1] = test system: shRNA PanK2 knockdown human neuroblastoma IMR32 cells; assay: Intracellular CoA levels in shRNA PanK2 knockdown human neuroblastoma cells; assay type: cell-based; settings: for Area Ratio, biological replicates 1-3 / Area Ratio, Mean / CoASH Fold Increase, Mean: Figure 3 data; for Area Ratio, biological replicates 1-3: PANK2-/- cells; for CoASH Fold Increase, Mean: over vehicle (1.00); for CoASH Area ratio / Total CoA Area ratio: Figure 4 data, 1 µM fosmetpantotenate, each line a biological replicate (well), analyzed 3 times
Description: The in vitro model to evaluate the efficacy of fosmetpantotenate and analogs was developed using a human neuroblastoma IMR32 cell line (ATCC) with stable PanK2 knockdown through lentiviral-delivered shRNA [23]. […] Cells were cultured in minimal essential media (MEM; Invitrogen), supplemented with 10% fetal bovine serum, 2 mM glutamine, 1% penicillin-streptomycin, 1 mM sodium pyruvate, 1 mM non-essential amino acids, 1.5 g/L sodium bicarbonate, and 1 μg/mL puromycin. […] At the end of the time period, cells were harvested, counted, collected in a 15 mL falcon tube, and centrifuged at 200xg for 5 min at 4°C.
For all incubations, the supernatant was removed and the cell pellet was resuspended in 10 mL of ice-cold phosphate buffered saline. […] The supernatant (100 μL) was placed in a separate tube and dried under nitrogen at 20°C in the dark. Samples were reconstituted with ammonium acetate buffer (pH 5.1) containing dextrorphan (50 ng/mL) as the internal standard, stirred for 2 min, sonicated in an ultrasonic bath for 1 min, and stirred again for 1 min before liquid chromatography-tandem mass spectrometry (LC-MS/MS) analysis for determination of intracellular CoA levels. Intracellular CoA concentration was calculated considering an intracellular volume of 10^6 cells equal to 2 μL. The measurement of the intracellular volume of cultured cells was performed following the distribution of [^14C]urea and [^14C]mannitol with time.
Coenzyme A determinations: An Agilent 1100 high-performance liquid chromatography (HPLC) system with a CTC PAL autosampler was used. Samples were chromatographed on a Phenomenex Luna C18 column (50 x 2.0 mm; 5 μm), with a 0.2 mL/min flow rate and a […] injection volume in a 5 μL injection loop. The mobile phases were (A) 10 mM ammonium acetate in water and (B) acetonitrile:2-propanol (9:1; v:v). […] A Sciex API 4000 QTrap mass spectrometer, connected to the HPLC system in tandem, with an electrospray ionization source operating in the positive scanning mode, was used for multiple reaction monitoring (MRM). […] The statistical significance of the treatment was determined using a t-test.

[2] = test system: PanK2 knockdown cells (acetylated tubulin); assay: Western blot analysis of acetylated tubulin; assay type: cell-based, human; settings: for Tubulin Acetylation (fold of control): mean ± SD of 3 independent experiments, β-actin normalization; for Acetyl tubulin level (fold over vehicle): single experiments Exp1 (n=1), Exp2 (n=3), Exp3 (n=3), listed as RE-024; for Acetyl tubulin (quantification) / Acetyl tubulin Normalized (to actin): 1 µM fosmetpantotenate, replicates 1-2
Description: After incubation, the cells were lysed in RIPA buffer containing 300 mM NaCl, 10 mM Tris HCl pH 8.0, 10 mM KCl, 1 mM ethylenediaminetetraacetic acid (EDTA), 1% Nonidet-P40, 1% sodium deoxycholate, 0.1% SDS, 1 mM phenylmethanesulfonyl fluoride, and protease inhibitor cocktail (11697498001, Roche, Indianapolis, IN), and sonicated on ice with a Branson 450 sonicator through 2 cycles of ten 2s pulses (1 min pause between cycles). Total protein concentration was determined using a Bio-Rad Protein Assay (500–0006, Biorad, Hercules, CA). Cell extracts were subjected to sodium dodecyl sulfate polyacrylamide gel electrophoresis (SDS-PAGE) analysis (4–12%, NP0335BOX, Life Technologies, Great Island, NY) and transferred to a nitrocellulose membrane (10401396, Whatman, Maidstone, UK). Immunostaining was accomplished by overnight incubation with primary antibodies followed by 1 h of incubation with dye-conjugated secondary antibodies according to the manufacturer’s instructions. Protein detection was achieved using an Infrared Odyssey system (LiCor, Lincoln, NE). Densitometric analysis of western blots was performed using ImageJ software; the statistical significance was determined using a t-test. Actin was used as a normalization probe.

[3] = Metabolic stability in human whole blood; assay type: in vitro ADME; settings: for Percentage Remaining: human whole blood, replicates 1 and 2, listed as Fosmetpantotenate Total
Description: Metabolic stability in blood and liver microsomes: Fosmetpantotenate or its individual diastereomers (5 μM, n = 2, 37°C) were incubated in mouse, rat, cynomolgus monkey, and human whole blood. Samples (50 μL) were taken at 0, 5, 15, 30, and 60 min. Incubations of fosmetpantotenate or its individual diastereomers (1 μM, n = 2, 37°C) in pooled liver microsomes (0.25 mg protein/mL in 0.1 M phosphate buffer pH 7.4) were initiated with the addition of nicotinamide adenine dinucleotide phosphate (NADPH; 1 mM). Aliquots (100 μL) were obtained at 0, 5, 10, 20, and 40 min and added to 150 μL of 0.1% formic acid in acetonitrile-containing carbamazepine (0.5 μM) as an analytical internal standard, centrifuged, and the supernatants analyzed by LC-MS/MS.
Bioanalysis for determinations of analyte stability: Samples were analyzed using a benchtop tandem quadrupole detector (TQD) mass spectrometer (Waters Ltd, Centennial Park, Hertfordshire). […] Suitable retention and peak shape with separation of the 2 diastereomers were obtained. The chromatography column was a Phenomenex-Kinetex XB C18 (2.10 x 50 mm; 2.6 μm), with a 0.7 mL/min flow rate and a 2 μL injection volume. […] The gradient was initiated with 20% B and increased linearly, reaching 40% B at 0.6 min, followed by 50% B at 0.8 min and by 95% B at 0.9 min. Conditions were kept isocratic through 1.2 min, returned to starting conditions (20% B) at 1.25 min, and maintained at 20% B through 1.5 min before the next injection. Since fosmetpantotenate is a mixture of diastereomers which are resolved chromatographically, the fosmetpantotenate MRM area corresponds to the sum of the MRM areas of the individual diastereomers.
The percent of compound remaining was determined from the MRM area response in each sample relative to that in the T = 0 samples (normalized for internal standard). Natural log plots of the percent compound remaining over time were used to determine the t½ of compound disappearance using the relationship t½ = -0.693/λ, where λ is the slope of the natural logarithm of the percent compound remaining vs time curve.

COC(=O)CCNC(=O)[C@H](O)C(C)(C)COP(=O)(N[C@@H](C)C(=O)OC)Oc1ccccc1 (mixture of isomers) [Fosmetpantotenate]
change in the level of free CoA ([1]; 1 μM TID for 5 days): little change; also recorded: little effect
Area Ratio, biological replicates 1-3 ([1]; compound conc 12.5 µM): 0.109 and 0.098 and 0.112
Area Ratio, biological replicates 1-3 ([1]; compound conc 25 µM): 0.141 and 0.129 and 0.135
Area Ratio, biological replicates 1-3 ([1]; compound conc 50 µM): 0.159 and 0.189 and 0.167
Area Ratio, biological replicates 1-3 ([1]; compound conc 100 µM): 0.157 and 0.186 and 0.139
Area Ratio, biological replicates 1-3 ([1]; compound conc 200 µM): 0.243 and 0.294 and 0.241
Area Ratio, Mean ([1]; concentration 12.5 µM): 0.081
Area Ratio, Mean ([1]; concentration 25 µM): 0.111
Area Ratio, Mean ([1]; concentration 50 µM): 0.141
Area Ratio, Mean ([1]; concentration 100 µM): 0.127
Area Ratio, Mean ([1]; concentration 200 µM): 0.216
CoASH Fold Increase, Mean ([1]; concentration 25 µM): 1.25
CoASH Fold Increase, Mean ([1]; concentration 50 µM): 2.00
CoASH Fold Increase, Mean ([1]; concentration 100 µM): 2.27
CoASH Fold Increase, Mean ([1]; concentration 200 µM): 2.41
CoASH Area ratio ([1]; Day 1): 0.0013 (2×) and 0.0014 and 0.0011 and 0.0012 (2×) and 0.0018 and 0.0019 (2×)
Total CoA Area ratio ([1]; Day 1): 0.0238 and 0.0248 and 0.0256 and 0.0250 and 0.0258 and 0.0229 and 0.0233 and 0.0235
CoASH Area ratio ([1]; Day 3): 0.0035 and 0.0037 (2×) and 0.0024 and 0.0025 and 0.0026 and 0.0022 and 0.0023 (2×)
Total CoA Area ratio ([1]; Day 3): 0.0360 and 0.0361 and 0.0365 and 0.0359 and 0.0368 and 0.0185 and 0.0353 and 0.0367
CoASH Area ratio ([1]; Day 5): 0.0029 and 0.0031 (2×) and 0.0024 (2×) and 0.0025 and 0.0019 and 0.0020 (2×)
Total CoA Area ratio ([1]; Day 5): 0.0314 and 0.0330 (2×) and 0.0343 and 0.0336 and 0.0342
change in acetyl tubulin ([2]; 1 μM TID, day 1): statistically significant decrease
increase in acetyl tubulin ([2]; 1 μM TID, day 5): ~ 1.6 fold
Tubulin Acetylation (fold of control) ([2]; 25 μM): 2.32 ± 0.64 fold of control
Acetyl tubulin level (fold over vehicle) ([2]; 25 µM): 1.86 fold over vehicle and 2.77 ± 0.13 fold over vehicle
Tubulin Acetylation (fold of control) ([2]; 50 μM): 3.68 ± 1.13 fold of control
Acetyl tubulin level (fold over vehicle) ([2]; 50 µM): 3.02 fold over vehicle and 3.03 ± 0.05 fold over vehicle and 4.99 ± 0.03 fold over vehicle
Tubulin Acetylation (fold of control) ([2]; 200 μM): 5.12 ± 2.57 fold of control
Acetyl tubulin (quantification) ([2]; Experiment 1, DAY 1): 5352.933 and 4967.69
Acetyl tubulin Normalized (to actin) ([2]; Experiment 1, DAY 1): 1.0
Acetyl tubulin (quantification) ([2]; Experiment 1, DAY 3): 5869.761 and 6720.347
Acetyl tubulin Normalized (to actin) ([2]; Experiment 1, DAY 3): 1.2 and 1.5
Acetyl tubulin (quantification) ([2]; Experiment 1, DAY 5): 9323.933 and 10851.882
Acetyl tubulin Normalized (to actin) ([2]; Experiment 1, DAY 5): 2.0 and 2.1
Acetyl tubulin (quantification) ([2]; Experiment 2, DAY 1): 2820.548 and 2422.355
Acetyl tubulin Normalized (to actin) ([2]; Experiment 2, DAY 1): 1.1 and 1.0
Acetyl tubulin (quantification) ([2]; Experiment 2, DAY 3): 5646.447 and 4155.426
Acetyl tubulin Normalized (to actin) ([2]; Experiment 2, DAY 3): 2.6
Acetyl tubulin (quantification) ([2]; Experiment 2, DAY 5): 4976.426 and 5163.962
Acetyl tubulin Normalized (to actin) ([2]; Experiment 2, DAY 5): 2.2 and 1.9
half-life at 5 μM ([3]; human blood, 5 μM, 37°C, 60 min): 1.12 h
Percentage Remaining ([3]; 5 min): 103% and 90%
Percentage Remaining ([3]; 15 min): 114% and 99%
Percentage Remaining ([3]; 30 min): 77% and 71%
Percentage Remaining ([3]; 60 min): 56% and 55%
